Assay results: patent US20230312582A1, “Salts Of Nitrogen-Containing Heterocyclic Compound, And Solid Forms Of Salts, Pharmaceutical Composition And Use Thereof” (Wuhan Humanwell Innovative Drug Research And Development …, priority 2020, published 2023)
Converted amounts (≈) assume the structure as drawn. Counter-ions that a name gives are not always drawn. Like-named read-outs stand apart in the source and are kept apart here.

Tests used:
[1] = Stability assay of human liver microsome; type: in vitro ADME; details: human liver microsomes, NADPH, 37° C.
Description: The stability of human liver microsome was detected by in vitro co-incubation of compounds with human liver microsomes. Test compounds were first prepared as 10 mM stock solutions in DMSO solvent, followed by dilution of the compounds to 0.5 mM using acetonitrile. […] The deep-well plate was taken, […] was added to each well, then 15 μL of pre-warmed 6 mM NADPH solution was added to the plate to start the reaction, and the plate was incubated at 37° C. […] The supernatant was taken after centrifugation, and added with purified water at a ratio of 1:1 for LC-MS/MS detection to obtain the ratio of peak area of compound to peak area of internal standard at each time point. […] T1/2 was calculated using Excel.

[2] = Thermodynamic solubility assay; type: physicochemical; details: thermodynamic from solid
Description: The compounds were weighed out accurately, added to the prepared phosphate buffered saline at pH 7.4, FeSSIF solution at pH 5.8 and FaSSGF solution at pH 1.6 to prepare a solution at a concentration of 4 mg/mL, and the prepared solution was shaken at 1000 rpm for 1 h, and then incubated overnight at room temperature. The incubated solution was centrifuged at 12000 rpm for 10 min to remove undissolved particles, and the supernatant was transferred to a new centrifuge tube. After the supernatant was diluted properly, the supernatant was added with an acetonitrile solution containing an internal standard, and quantified by adopting a standard curve prepared by the same matrix.

[3] = In vivo pharmacokinetic assay in mice; details: male, ICR, mouse, in vivo
Description: (§1) In vivo pharmacokinetic assay in rats was performed, wherein the used rats were 6 male SD rats weighing 180-240 g and fasted overnight. […] Blood samples were centrifuged at 8000 rpm for 6 min at 4° C., and plasma was collected and stored at −20° C. The plasma at each time point was taken and added with 3-5 times of acetonitrile solution containing the internal standard for mixing, and the mixed solution was subjected to vortex mixing for 1 min, and centrifuging at 4° C. for 10 min at 13000 rpm. The supernatant was taken and added with 3 times of water for mixing. A proper amount of the mixed solution was taken for LC-MS/MS analysis. The major pharmacokinetic parameters were analyzed using WinNonlin 7.0 software and a non-compartmental model.
In vivo pharmacokinetic assay in mice was performed, wherein the used mice were 18 male ICR mice weighing 20-25 g and fasted overnight. […] The rest of the procedure was performed in the same manner as in the pharmacokinetic assay in rats.

[4] = In vivo pharmacokinetic assay in rats; details: male, SD, rat, in vivo
Description: as §1

[5] = Pharmacokinetic assay (crystal form) in mice; type: in vivo; details: male, ICR, mouse, plasma, oral intragastric administration 10 mg/kg
Description: as §1, with “in mice” for “in rats”, “used mice” for “used rats”, “were 9” for “were 6”, “male ICR mice” for “male SD rats”, “weighing 20-25” for “weighing 180-240”, “overnight. 9 mice were taken and orally intragastrically administered with 10 mg/kg of the compound.” for “overnight.”

[6] = Hygroscopicity by dynamic vapor sorption (DVS); type: physicochemical; details: for After DVS test Whether the crystal form is changed: 0% RH to 95% RH to 0% RH; for After DVS test Whether the crystal form is changed / Hygroscopicity / Vapor sorption (25° C./80% RH): 25° C.; for Hygroscopicity / Vapor sorption (25° C./80% RH): DVS; for DVS curve vapor sorption: at 0% RH to 80% RH; for Risk evaluation: hygroscopicity evaluation
Description: Dynamic vapor sorption (DVS) curves are acquired on a DVS Intrinsic in SMS (Surface Measurement System). The relative humidity at 25° C. is corrected with the deliquescence points of LiCl, Mg(NO3)2 and KCl.
Hygroscopicity of the crystal form A of hydrochloride, the crystal form A of fumarate, the crystal form A of benzenesulfonate and the free base crystal form A prepared repeatedly was evaluated using a dynamic vapor sorption (DVS) instrument. Starting at 0% relative humidity (0% RH), the test acquired the percentage change of mass of the sample when humidity changed (0% RH to 95% RH to 0% RH) at a constant temperature of 25° C.

[7] = Polarizing microscope (PLM) image, particle size; type: physicochemical; details: room temperature
Description: The polarizing microscope data are acquired by an Axio Lab. A1 upright microscope at room temperature.

[8] = Dynamic solubility in water and three biological vehicles; type: physicochemical; details: for Crystal form change: XRPD of solid; for pH: filtrate
Description: The dynamic solubility of the crystal form A of hydrochloride, the crystal form A of fumarate, the crystal form A of benzenesulfonate and the free base crystal form A prepared repeatedly was evaluated in water and three biological vehicles. […] After centrifugation of the samples at each time point (0.45 μm PTFE filter head), the filtrate was determined for HPLC concentration and pH, and the centrifuged solid samples were tested for XRPD.

Solid stability, 1 week = type: physicochemical; details: for Purity (area %): HPLC; for Crystal form change: XRPD
Description: The crystal form A of hydrochloride, the crystal form A of fumarate, the crystal form A of benzenesulfonate and the free base crystal form A prepared repeatedly were placed at 25° C./60% RH and 40° C./75% RH for 1 week, and then the physical and chemical stability of the samples were tested by XRPD and HPLC. […] No significant purity decrease or crystal form transformation occurred in any of the other samples after being placed under 2 conditions for 1 week.

[9] = intravenous injection 1 mg/kg, read-out: Vz
[10] = oral intragastric administration 10 mg/kg
[11] = listed as crystal form A of hydrochloride

## O=C(COCCc1cnn[nH]1)N1Cc2cnc(NC3Cc4ccccc4C3)nc2C1 [Control compound, reference compound]
[1]
  Remaining percentage of compound after 30 min of incubation (%): 41.2%
  half-life at 1.5 μM: 24.1 min
[2]; aqueous buffer, PBS, pH 7.4, room temperature overnight, read-out: Solubility PBS (pH 7.4)
  solubility: 6.3 mg/mL (≈ 15.5 mM)
[2]; fassgf or other biorelevant, FaSSGF, pH 1.6, room temperature overnight, read-out: Solubility FaSSGF (pH 1.6)
  solubility: 66.5 mg/mL (≈ 164 mM)
[2]; FeSSIF, pH 5.8, room temperature overnight, read-out: Solubility FeSSIF (pH 5.8)
  solubility: 18.3 mg/mL (≈ 45.1 mM)
[3]; intravenous injection 1 mg/kg
  AUC(0-t): 0.29 µg·h/mL
  clearance: 3.45 L/h/kg
  half-life: 20.4 min
[3]; [9]
  Vd: 1.67 L/kg
[3]; [10]
  AUC(0-t): 2.9 µg·h/mL
  Cmax: 2.04 µg/mL
  Tmax: 15 min
  half-life: 49.8 min
[4]; intravenous injection 1 mg/kg
  AUC(0-t): 0.58 µg·h/mL
  clearance: 1.76 L/h/kg
  half-life: 27 min
[4]; [9]
  Vd: 1.12 L/kg
[4]; [10]
  AUC(0-t): 4.87 µg·h/mL
  Cmax: 2.59 µg/mL
  Tmax: 25.2 min
  half-life: 78.6 min
[5]
  AUC(0-t): 2.9 µg·h/mL
  Cmax: 2.04 µg/mL
  Tmax: 15 min
  half-life: 49.8 min

## C[C@H](Cc1cnn[nH]1)OCC(=O)N1Cc2cnc(NC3Cc4ccccc4C3)nc2C1 [Crystal form A of fumarate]
[6]
  After DVS test Whether the crystal form is changed: No
  Hygroscopicity: Slightly
  Vapor sorption (25° C./80% RH): 0.60%
  DVS curve vapor sorption: less than 0.60%
  Risk evaluation: None
[7]
  particle size: less than 50 μm
[8]; H2O, 1 h
  Crystal form change: No
  pH: 3.6
[8]; H2O, 4 h
  Crystal form change: No
  pH: 3.7
[8]; H2O, 24 h
  Crystal form change: No
  pH: 3.6
[8]; SGF, 1 h
  Crystal form change: No
  pH: 1.9
[8]; SGF, 4 h
  Crystal form change: No
  pH: 1.9
[8]; SGF, 24 h
  Crystal form change: No
  pH: 1.9
[8]; FaSSIF, 1 h
  pH: 4.9
[8]; FaSSIF, 4 h
  pH: 4.4
[8]; FaSSIF, 24 h
  pH: 4.2
[8]; FeSSIF, 1 h
  pH: 4.8
[8]; FeSSIF, 4 h
  pH: 4.9
[8]; FeSSIF, 24 h
  pH: 4.8
Solid stability, 1 week; 25° C./60% RH
  Purity/initial purity (%): 100.1%
  Purity (area %): 99.28 area %
  Crystal form change: No
Solid stability, 1 week; 40° C./75% RH
  Purity/initial purity (%): 100.1%
  Purity (area %): 99.33 area %
  Crystal form change: No

## C[C@H](Cc1cnn[nH]1)OCC(=O)N1Cc2cnc(NC3Cc4ccccc4C3)nc2C1 [Crystal form A of hydrochloride]
[6]
  After DVS test Whether the crystal form is changed: Yes*
  Hygroscopicity: Moderately
  Vapor sorption (25° C./80% RH): 3.85%
  DVS curve vapor sorption: less than 3.85%
  Risk evaluation: Significantly increased
[6]; [11]
  After DVS test Whether the crystal form is changed: changed crystal form
  Hygroscopicity: had hygroscopicity
[7]
  particle size: less than 50 μm
[8]; FaSSIF, 1 h
  pH: 5.7
[8]; FaSSIF, 4 h
  pH: 5.5
[8]; FaSSIF, 24 h
  pH: 5.2
[8]; FeSSIF, 1 h
  pH: 4.9
[8]; FeSSIF, 4 h
  pH: 4.9
[8]; FeSSIF, 24 h
  pH: 4.9
[8]; H2O, 1 h
  pH: 2.3
[8]; H2O, 4 h
  pH: 2.2
[8]; H2O, 24 h
  pH: 2.3
[8]; SGF, 1 h
  pH: 1.8
[8]; SGF, 4 h
  pH: 1.8
[8]; SGF, 24 h
  pH: 1.9
[8]; water, SGF, FaSSIF, FeSSIF
  solubility in each system compared with that of the free base crystal form A: significantly improved
Solid stability, 1 week; 25° C./60% RH
  Purity/initial purity (%): 99.5%
  Purity (area %): 96.68 area %
  Crystal form change: No
Solid stability, 1 week; 40° C./75% RH
  Purity/initial purity (%): 79.9%
  XRPD crystallinity: decreased
  Purity (area %): 77.67 area %
  Crystal form change: No*

## C[C@H](Cc1cnn[nH]1)OCC(=O)N1Cc2cnc(NC3Cc4ccccc4C3)nc2C1 [Free base crystal form A]
[6]
  After DVS test Whether the crystal form is changed: No
  Hygroscopicity: Slightly
  Vapor sorption (25° C./80% RH): 1.03%
  Risk evaluation: None
[7]
  particle size: less than 50 μm
[8]; FaSSIF, 1 h
  Crystal form change: No
  pH: 6.5
[8]; FaSSIF, 4 h
  Crystal form change: No
  pH: 6.6
[8]; FaSSIF, 24 h
  Crystal form change: No
  pH: 6.6
[8]; FeSSIF, 1 h
  Crystal form change: No
  pH: 5.1
[8]; FeSSIF, 4 h
  Crystal form change: No
  pH: 5.1
[8]; FeSSIF, 24 h
  Crystal form change: No
  pH: 5.1
[8]; H2O, 1 h
  Crystal form change: No
  pH: 8.4
[8]; H2O, 4 h
  Crystal form change: No
  pH: 8.4
[8]; H2O, 24 h
  Crystal form change: No
  pH: 8.6
[8]; SGF, 1 h
  Crystal form change: No
  pH: 1.9
[8]; SGF, 4 h
  Crystal form change: No
  pH: 1.9
[8]; SGF, 24 h
  Crystal form change: No
  pH: 2.0
Solid stability, 1 week; 25° C./60% RH
  Purity/initial purity (%): 100.0%
  Purity (area %): 98.67 area %
  Crystal form change: No
Solid stability, 1 week; 40° C./75% RH
  Purity/initial purity (%): 100.0%
  Purity (area %): 98.60 area %
  Crystal form change: No
